Source: patent US7833331B2, “Non-toxic corrosion-protection pigments based on cobalt” (University of Dayton, priority 2007, dated 2010)
Where “and” joins values, the source holds several entries; their conditions need not be identical. Equal values may be shown once. Entries after “also recorded” stand apart in the source; their conditions may differ. Read-outs that look alike come from different tables or passages of the source.

How the values were obtained:
[1] = ASTM B-117 static salt fog test of PVB wash primer with pigment, rated by ASTM D-1654; conditions: ASTM D-1654 rating; for 2024-T3 B-117 Proc. A / 7075-T6 B-117 Proc. A: failure at scribe; for 2024-T3 B-117 Proc. B / 7075-T6 B-117 Proc. B: failure in unscribed areas
Experimental: (§1) The corrosion inhibiting performance of CoIII pigments was evaluated by incorporating them into primer paint formulations. The acid wash primer paint formulations called out in DoD-P-15328 [Primer (Wash), Pretreatment (Formulation No. 117 for Metals)] were used to test the various pigments. The wash primer is composed of a resin, an acid, a corrosion inhibiting pigment, powdered talc, and carbon lampblack. The acid content of this wash primer provides a rigorous initial test of the stability and performance of the pigments. Other, more benign, polymer-based binder and resin systems might not separate the compounds based on their performance as effectively or as rapidly. The base solution for the wash primer in this specification was prepared by mixing 88.3 grams of isopropanol, 31.3 grams of n-butanol, and 3.8 grams of deionized water with 14 grams of poly(vinyl butyral) resin (PVB) (Monsanto Butvar B-90TM). PVB was used exclusively throughout testing to avoid preparation and compositional complications during analysis of pigment performance. However, the invention is not limited to the use of PVB. Acid diluent was prepared by mixing 70 grams of 85% phosphoric acid, 63 grams of deionized water, and 247 grams of isopropanol. Finely-ground pigment powder was measured out and added to 13.74 grams of the base solution for each paint to be tested. A small amount (0.2 g) of powdered talc (magnesium silicate) “filler” was added. Lampblack was not added to these samples. These components were mixed thoroughly by hand and 3.8 g of phosphoric acid diluent added with further mixing. This rough processing allowed direct comparisons of pigment performance to be made without complications due to powder treatments, modifications, and additives. […] This is not the conventional paint application procedure for aluminum alloys. Under normal service conditions, aluminum alloys are first subjected to a hexavalent chromium-containing conversion coating prior to primer application. However, the conversion coating was omitted so that the performance of the pigment alone could be evaluated and not the synergistic effects of hexavalent chromium (in the conversion coating) or even of barrier films (in the phosphate or anodized coatings). Multiple samples of specific pigment compositions were prepared and tested. […] The chromate pigments were prepared identically to those used to test CoIII composition variations. PVB wash primers containing various pigment formulations were evaluated by exposing them to static salt fog (ASTM B-117) and cyclic Prohesiomm (ASTM G-85.5) accelerated corrosion tests. ASTM B-117 is a traditional corrosion “proof” test that has little relation to a real working environment. This accelerated corrosion test exposes samples to a constant salt-water fog and is a de facto test of solubility for corrosion inhibitors. […] This is particularly true of inhibitors and compounds that have not been fully optimized with respect to solubility. ASTM G-85.5 (ProhesionTM) is a cyclic corrosion test that more closely resembles real working environments. This accelerated corrosion test exposes samples to a cycle of fog of dilute salt and ammonium sulfate at room temperature followed by forced-air drying at an elevated temperature. This is a more realistic test of the ability of a compound to inhibit corrosion. Results of these tests can be combined to gain insight into how a particular coating or compound will perform relative to a standard as well as helping identify strengths and weaknesses in the performance of the material. ASTM D-1654 evaluation standard for painted or coated specimens subjected to corrosive environments was used to evaluate the performance of the coatings. After the paint dried for 24 hours, each plate was scribed with an X and the plate edges were sealed with PVC tape to eliminate corrosion edge effects. Two visual observations are associated with this rating test. […]

[2] = ASTM G-85.5 cyclic Prohesion test of PVB wash primer with pigment, rated by ASTM D-1654; conditions: ASTM D-1654 rating; for 2024-T3 G-85 Proc. A / 7075-T6 G-85 Proc. A: failure at scribe; for 2024-T3 G-85 Proc. B / 7075-T6 G-85 Proc. B: failure in unscribed areas
Experimental: as §1

[3] = Accelerated corrosion testing (both ASTM B-117 and G-85.5) of PVB wash primers, overall observation
Experimental: The corrosion inhibiting performance of CoIII pigments was evaluated by incorporating them into primer paint formulations. […] The wash primer is composed of a resin, an acid, a corrosion inhibiting pigment, powdered talc, and carbon lampblack. The acid content of this wash primer provides a rigorous initial test of the stability and performance of the pigments. Other, more benign, polymer-based binder and resin systems might not separate the compounds based on their performance as effectively or as rapidly.
PVB was used exclusively throughout testing to avoid preparation and compositional complications during analysis of pigment performance. However, the invention is not limited to the use of PVB.
A small amount (0.2 g) of powdered talc (magnesium silicate) “filler” was added. Lampblack was not added to these samples. These components were mixed thoroughly by hand and 3.8 g of phosphoric acid diluent added with further mixing. This rough processing allowed direct comparisons of pigment performance to be made without complications due to powder treatments, modifications, and additives.
This is not the conventional paint application procedure for aluminum alloys. Under normal service conditions, aluminum alloys are first subjected to a hexavalent chromium-containing conversion coating prior to primer application. However, the conversion coating was omitted so that the performance of the pigment alone could be evaluated and not the synergistic effects of hexavalent chromium (in the conversion coating) or even of barrier films (in the phosphate or anodized coatings).
This accelerated corrosion test exposes samples to a constant salt-water fog and is a de facto test of solubility for corrosion inhibitors. […] This accelerated corrosion test exposes samples to a cycle of fog of dilute salt and ammonium sulfate at room temperature followed by forced-air drying at an elevated temperature.
Chromate pigments were precipitated from aqueous synthesis solutions and incorporated into PVB wash primer formulations so that each primer sample had the same molar quantity of hexavalent chromium. […] After the samples had dried for 24 hours, they were scribed and the edges of each sample taped to eliminate edge effects.
Wash primer coatings containing these pigments were prepared wherein the trivalent cobalt was present in identical molar concentrations from sample to sample. […] Pigments were made with chloride, bromide, sulfate, hexafluorosilicate, phosphate, molybdate, tungstate, and phosphomolybdate anions. Additionally, […] was also used as a pigment for this application.

[4] = 144 hours, inhibitor conc. 1.49 × 10^−3 M (20% of Cr)
[5] = 139 hours, inhibitor conc. 1.49 × 10^−3 M (20% of Cr)
[6] = 139 hours, inhibitor conc. 3.72 × 10^−3 M (50% of Cr)
[7] = 135 hours of both ASTM B-117 and G-85.5, identical molar concentrations of trivalent cobalt, 2024-T3 and 7075-T6
[8] = 117 hours, inhibitor conc. 1.49 × 10^−3 M (20% of Cr)
[9] = 139 hours, inhibitor conc. 7.44 × 10^−4 M (10% of Cr)

barium 10-molybdocobaltate
2024-T3 B-117 Proc. A [1, 4]: 7
7075-T6 B-117 Proc. A [1, 4]: 6
2024-T3 B-117 Proc. B [1, 4]: 6
7075-T6 B-117 Proc. B [1, 4]: 5
2024-T3 G-85 Proc. A [2, 4]: 7
7075-T6 G-85 Proc. A [2, 4]: 7
2024-T3 G-85 Proc. B [2, 4]: 7
7075-T6 G-85 Proc. B [2, 4]: 7

zinc 10-molybdocobaltate
2024-T3 B-117 Proc. A [1, 4]: 7
7075-T6 B-117 Proc. A [1, 4]: 7
2024-T3 B-117 Proc. B [1, 4]: 7
7075-T6 B-117 Proc. B [1, 4]: 7 and 5
2024-T3 G-85 Proc. A [2, 4]: 6 and 7
7075-T6 G-85 Proc. A [2, 4]: 7
2024-T3 G-85 Proc. B [2, 4]: 7 and 6
7075-T6 G-85 Proc. B [2, 4]: 6

calcium 10-vanadatocobaltate
2024-T3 B-117 Proc. A [1, 5]: 8
7075-T6 B-117 Proc. A [1, 5]: 7
2024-T3 B-117 Proc. B [1, 5]: 7
7075-T6 B-117 Proc. B [1, 5]: 6
2024-T3 G-85 Proc. A [2, 5]: 7 and 8
7075-T6 G-85 Proc. A [2, 5]: 7
2024-T3 G-85 Proc. B [2, 5]: 6
7075-T6 G-85 Proc. B [2, 5]: 6

calcium 10-molybdocobaltate
2024-T3 B-117 Proc. A [1, 4]: 7
7075-T6 B-117 Proc. A [1, 4]: 7 and 6
2024-T3 B-117 Proc. B [1, 4]: 6
7075-T6 B-117 Proc. B [1, 4]: 6
2024-T3 G-85 Proc. A [2, 4]: 9
7075-T6 G-85 Proc. A [2, 4]: 8 and 9
2024-T3 G-85 Proc. B [2, 4]: 8
7075-T6 G-85 Proc. B [2, 4]: 7 and 8

magnesium periodatocobaltate
2024-T3 B-117 Proc. A [1, 6]: 7
7075-T6 B-117 Proc. A [1, 6]: 7
2024-T3 B-117 Proc. B [1, 6]: 6
7075-T6 B-117 Proc. B [1, 6]: 6
2024-T3 G-85 Proc. A [2, 6]: 7 and 8
7075-T6 G-85 Proc. A [2, 6]: 7
2024-T3 G-85 Proc. B [2, 6]: 7 and 8
7075-T6 G-85 Proc. B [2, 6]: 7

N.N.N.N.N.N.N.N.N.N.N.N.[Co+3].[Co+3].[O]=[W](=[O])([O-])[O-].[O]=[W](=[O])([O-])[O-].[O]=[W](=[O])([O-])[O-] [hexaaminecobalt(III) tungstate]
corrosion resistance of trivalent cobalt pigments in PVB wash primer [3]: a small amount of corrosion resistance

sodium 10-vanadatocobaltate
2024-T3 B-117 Proc. A [1, 5]: 9
7075-T6 B-117 Proc. A [1, 5]: 6
2024-T3 B-117 Proc. B [1, 5]: 8
7075-T6 B-117 Proc. B [1, 5]: 7
2024-T3 G-85 Proc. A [2, 5]: 8
7075-T6 G-85 Proc. A [2, 5]: 7
2024-T3 G-85 Proc. B [2, 5]: 7
7075-T6 G-85 Proc. B [2, 5]: 6

magnesium 10-molybdocobaltate
2024-T3 B-117 Proc. A [1, 4]: 7
7075-T6 B-117 Proc. A [1, 4]: 7
2024-T3 B-117 Proc. B [1, 4]: 6
7075-T6 B-117 Proc. B [1, 4]: 6
2024-T3 G-85 Proc. A [2, 4]: 9 and 8
7075-T6 G-85 Proc. A [2, 4]: 9
2024-T3 G-85 Proc. B [2, 4]: 8 and 7
7075-T6 G-85 Proc. B [2, 4]: 7 and 8

F[Si-2](F)(F)(F)(F)F.F[Si-2](F)(F)(F)(F)F.F[Si-2](F)(F)(F)(F)F.N.N.N.N.N.N.N.N.N.N.N.N.[Co+3].[Co+3] [hexaaminecobalt(III) hexafluorosilicate]
corrosion resistance of trivalent cobalt pigments in PVB wash primer [3, 7]: performed the best of all

strontium 10-molybdocobaltate
2024-T3 B-117 Proc. A [1, 4]: 6 and 7
7075-T6 B-117 Proc. A [1, 4]: 7 and 6
2024-T3 B-117 Proc. B [1, 4]: 5
7075-T6 B-117 Proc. B [1, 4]: 6 and 5
2024-T3 G-85 Proc. A [2, 4]: 7
7075-T6 G-85 Proc. A [2, 4]: 7
2024-T3 G-85 Proc. B [2, 4]: 6
7075-T6 G-85 Proc. B [2, 4]: 6

N.N.N.N.N.N.N.N.N.N.N.N.[Co+3].[Co+3].[O]=[Mo](=[O])([O-])[O-].[O]=[Mo](=[O])([O-])[O-].[O]=[Mo](=[O])([O-])[O-] [hexaaminecobalt(III) molybdate]
corrosion resistance of trivalent cobalt pigments in PVB wash primer [3]: a small amount of corrosion resistance; also recorded: performed the best of these three pigment compounds

zinc 10-vanadatocobaltate
2024-T3 B-117 Proc. A [1, 5]: 9
7075-T6 B-117 Proc. A [1, 5]: 8 and 9
2024-T3 B-117 Proc. B [1, 5]: 9 and 8
7075-T6 B-117 Proc. B [1, 5]: 8 and 9
2024-T3 G-85 Proc. A [2, 5]: 7
7075-T6 G-85 Proc. A [2, 5]: 7
2024-T3 G-85 Proc. B [2, 5]: 6
7075-T6 G-85 Proc. B [2, 5]: 6

calcium 6-molybdocobaltate
2024-T3 B-117 Proc. A [1, 8]: 7 and 6
7075-T6 B-117 Proc. A [1, 8]: 7
2024-T3 B-117 Proc. B [1, 8]: 5 and 6
7075-T6 B-117 Proc. B [1, 8]: 6
2024-T3 G-85 Proc. A [2, 8]: 8
7075-T6 G-85 Proc. A [2, 8]: 8
2024-T3 G-85 Proc. B [2, 8]: 7
7075-T6 G-85 Proc. B [2, 8]: 8

barium 11-tungstophosphocobaltate
2024-T3 B-117 Proc. A [1, 9]: 7
7075-T6 B-117 Proc. A [1, 9]: 7
2024-T3 B-117 Proc. B [1, 9]: 6
7075-T6 B-117 Proc. B [1, 9]: 6
2024-T3 G-85 Proc. A [2, 9]: 7
7075-T6 G-85 Proc. A [2, 9]: 7
2024-T3 G-85 Proc. B [2, 9]: 7 and 6
7075-T6 G-85 Proc. B [2, 9]: 6

N.N.N.N.N.N.[Cl-].[Cl-].[Cl-].[Co+3] [hexaaminecobalt(III) chloride]
corrosion resistance of trivalent cobalt pigments in PVB wash primer [3]: performed very well in the early stages of the test and then failed as the test progressed

hexaaminecobalt(III) phosphomolybdate
corrosion resistance of trivalent cobalt pigments in PVB wash primer [3, 7]: a small amount of corrosion resistance; also recorded: performed the worst

magnesium 10-vanadatocobaltate
2024-T3 B-117 Proc. A [1, 5]: 7 and 6
7075-T6 B-117 Proc. A [1, 5]: 7
2024-T3 B-117 Proc. B [1, 5]: 7
7075-T6 B-117 Proc. B [1, 5]: 7
2024-T3 G-85 Proc. A [2, 5]: 8 and 9
7075-T6 G-85 Proc. A [2, 5]: 8 and 9
2024-T3 G-85 Proc. B [2, 5]: 7 and 8
7075-T6 G-85 Proc. B [2, 5]: 7 and 8

strontium 10-vanadatocobaltate
2024-T3 B-117 Proc. A [1, 5]: 7
7075-T6 B-117 Proc. A [1, 5]: 6
2024-T3 B-117 Proc. B [1, 5]: 6
7075-T6 B-117 Proc. B [1, 5]: 5
2024-T3 G-85 Proc. A [2, 5]: 7
7075-T6 G-85 Proc. A [2, 5]: 6
2024-T3 G-85 Proc. B [2, 5]: 6
7075-T6 G-85 Proc. B [2, 5]: 5

[O]=[Co][O][Co]=[O] [CO2O3, Co2O3, reference compound]
corrosion resistance of trivalent cobalt pigments in PVB wash primer [3, 7]: no discernable corrosion resistance at all
